This passage reports Ki results from BindingDB's records for doi:10.1016/j.bmcl.2004.10.092 (F. Hoffmann-La Roche, 2005).

The Ki is a measure of affinity in units of concentration, obtained from inhibition or displacement.

Structures are written as SMILES.

Holding throughout (experiment): Serine Protease Inhibition Assay
Test [1] has as its target T1, Coagulation factor VII (Homo sapiens, UniProt P08709).
T1 sequence (P08709 whole entry): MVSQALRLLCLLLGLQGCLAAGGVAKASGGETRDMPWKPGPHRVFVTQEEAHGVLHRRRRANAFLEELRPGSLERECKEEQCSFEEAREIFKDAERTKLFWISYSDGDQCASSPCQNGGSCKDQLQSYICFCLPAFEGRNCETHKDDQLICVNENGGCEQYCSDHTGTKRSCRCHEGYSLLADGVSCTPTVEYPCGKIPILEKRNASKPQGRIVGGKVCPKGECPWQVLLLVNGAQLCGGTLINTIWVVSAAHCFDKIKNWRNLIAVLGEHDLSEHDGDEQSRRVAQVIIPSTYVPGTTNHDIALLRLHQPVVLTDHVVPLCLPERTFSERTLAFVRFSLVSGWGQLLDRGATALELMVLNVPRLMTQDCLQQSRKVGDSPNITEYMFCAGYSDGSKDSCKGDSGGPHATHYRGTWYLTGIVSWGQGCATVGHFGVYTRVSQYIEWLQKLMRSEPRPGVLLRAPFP
Particulars: pH 7.8; 22 °C. The method, then: (§1) The enzyme reactions were initiated by the addition of substrate, and the color developed from the release of p-nitroanilide from each chromogenic substrate was monitored continuously for 5 min at 405 nm on a microtiter plate reader. […] The apparent Ki values were then calculated according to the Cheng-Prusoff equation: Ki = IC50/1 + [S]/Km.

For test [2], the target named is Coagulation factor X (Homo sapiens, UniProt P00742). The method, then:
as §1

Test [3] has as its target Prothrombin (Homo sapiens, UniProt P00734). The method, then: as §1
For test [4], the target named is T2, Serine protease 1 (Bos taurus, UniProt P00760).
T2 sequence (P00760 whole entry): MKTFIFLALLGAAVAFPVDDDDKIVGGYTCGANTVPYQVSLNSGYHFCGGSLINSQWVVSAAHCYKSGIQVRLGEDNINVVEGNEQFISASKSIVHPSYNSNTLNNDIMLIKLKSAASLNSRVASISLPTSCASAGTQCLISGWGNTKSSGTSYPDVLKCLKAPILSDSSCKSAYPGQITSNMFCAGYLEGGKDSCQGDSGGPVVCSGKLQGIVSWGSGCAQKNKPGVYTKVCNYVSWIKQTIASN
The method, then: as §1

Chain of Coagulation factor X (P00742 41-179 limits assumed): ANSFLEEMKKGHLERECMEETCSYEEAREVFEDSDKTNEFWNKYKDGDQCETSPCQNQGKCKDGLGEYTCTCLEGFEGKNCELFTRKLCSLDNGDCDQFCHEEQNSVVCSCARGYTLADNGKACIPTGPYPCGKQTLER
Chain of Coagulation factor X (P00742 235-488 limits assumed): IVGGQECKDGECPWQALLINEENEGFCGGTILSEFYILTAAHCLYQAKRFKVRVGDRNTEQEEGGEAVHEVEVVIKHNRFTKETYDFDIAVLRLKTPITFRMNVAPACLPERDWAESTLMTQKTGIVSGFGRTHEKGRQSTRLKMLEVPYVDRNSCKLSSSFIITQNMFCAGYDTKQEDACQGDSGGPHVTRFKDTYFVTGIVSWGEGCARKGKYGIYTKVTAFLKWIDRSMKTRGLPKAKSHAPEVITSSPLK

Regarding `COc1cc(C(Nc2ccc(C(=N)N)cc2)C(=O)N[C@H](C(=O)O)c2ccccc2)c(C(=O)Cc2ccccc2)cc1OCc1ccccc1` (stereo partly drawn) [(2S)-2-{2-[4-(benzyloxy)-5-methoxy-2-(2-phenylacetyl)phenyl]-2-[(4-carbamimidoylphenyl)amino]acetamido}-2-phenylacetic acid], the Ki stood at 7 nM in test [1], 19000 nM in test [2], 6400 nM in test [3] and 80 nM in test [4].

In the case of `COc1cc(C(Nc2ccc(C(=N)N)cc2)C(=O)N[C@H](C(=O)O)c2ccccc2)c(S(=O)(=O)c2ccccc2)cc1OCc1ccccc1` (some centres not stated) [phenylglycine amide compound 10], the Ki in test [2] was 12400 nM; in test [3], 540 nM; in test [4], 50 nM.
